Patent US9072293B2, “Cyclopropenes and method for applying cyclopropenes to agricultural products or crops” (Erum Biotechnologies Inc., priority 2010, dated 2015)
“And” between values parts separate entries of the source, which are not always exact repeats. Identical values can stand only once.

Tests used:
[1] = 1,000 ppm (v/v) or less concentration, room temperature; cited from earlier work
[2] = system: tomato; experiment: Experimental Example 2: Efficacy test on tomato using oil based formulation (reddening grade); type: in vivo; settings: 1.0 mM oil-based formulation, individual tomatoes n=4
In short: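 Tomatoes (n=4 per group) sprayed to surface saturation with 1.0 mM oil-based (xylene/hexane) cyclopropene formulations, versus untreated and solvent controls. Kept 3 days at 25–30 °C; ripening scored 0–5 by area of red coloration.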

[3] = system: tomato; experiment: Experimental Example 1: Efficacy test on tomato using emulsion (reddening grade); type: in vivo; settings: individual tomatoes n=4
[4] = Relative chemical stability of cyclopropenes measured by 1H-NMR; type: physicochemical
In short: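 Compounds in CDCl3 NMR tubes stored at −20° C. or room temperature and followed by 1H-NMR. Integrals of characteristic 1-alkylcyclopropene peaks (4–6.5 ppm, 1H; 0.8–0.9 ppm, 2H) compared against 1,1,3,3-tetramethylurea internal standard (2.80 ppm); stability expressed relative to chain-length-1 analogue.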

SMILES	half life [1]	Tomato results: reddening level (grade 0 to 5) ([2]; Day 0, room temperature (25-30° C.))	Tomato results: reddening level (grade 0 to 5) ([2]; Day 1, room temperature (25-30° C.))	Tomato results: reddening level (grade 0 to 5) ([2]; Day 2, room temperature (25-30° C.))	Tomato results: reddening level (grade 0 to 5) ([2]; Day 3, room temperature (25-30° C.))	reddening level (grade 0 to 5) ([3]; 100 μM, Day 0, room temperature (25-30° C.))	reddening level (grade 0 to 5) ([3]; 100 μM, Day 1, room temperature (25-30° C.))	reddening level (grade 0 to 5) ([3]; 100 μM, Day 2, room temperature (25-30° C.))	reddening level (grade 0 to 5) ([3]; 100 μM, Day 3, room temperature (25-30° C.))	reddening level (grade 0 to 5) ([3]; 1.0 mM, Day 0, room temperature (25-30° C.))	reddening level (grade 0 to 5) ([3]; 1.0 mM, Day 1, room temperature (25-30° C.))	reddening level (grade 0 to 5) ([3]; 1.0 mM, Day 2, room temperature (25-30° C.))	reddening level (grade 0 to 5) ([3]; 1.0 mM, Day 3, room temperature (25-30° C.))	chemical stability (in words) [4]	Stability (relative chemical stability, based on cyclopropenes having a chain length of 1) ([4]; 1H-NMR, CDCl3, stored at −20° C. or room temperature, relative to chain length 1)
CC1=CC1 [1-methylcyclopropene]	≥ 240 h	–	–	–	–	–	–	–	–	–	–	–	–	–	–
C1=C(CCCCCc2ccccc2)C1 [(5-Phenylpentyl), 1-(5-phenylpentyl)cyclopropene]	–	0 (an area in which the surface of tomato was colored in pink was 10% or less) (2×) and 1 (an area in which the surface of tomato was completely colored in red was 10 to 40%) and 2 (an area in which the surface of tomato was completely colored in red was 40 to 70%)	0 (an area in which the surface of tomato was colored in pink was 10% or less) (2×) and 1 (an area in which the surface of tomato was completely colored in red was 10 to 40%) and 2 (an area in which the surface of tomato was completely colored in red was 40 to 70%)	0 (an area in which the surface of tomato was colored in pink was 10% or less) and 1 (an area in which the surface of tomato was completely colored in red was 10 to 40%) and 2 (an area in which the surface of tomato was completely colored in red was 40 to 70%) and 3 (an area in which the surface of tomato was completely colored in red was 70% or more and the bottom area remained green)	1 (an area in which the surface of tomato was completely colored in red was 10 to 40%) (2×) and 3 (an area in which the surface of tomato was completely colored in red was 70% or more and the bottom area remained green) and 4	0 (an area in which the surface of tomato was colored in pink was 10% or less) (2×) and 1 (an area in which the surface of tomato was completely colored in red was 10 to 40%) and 2 (an area in which the surface of tomato was completely colored in red was 40 to 70%)	0 (an area in which the surface of tomato was colored in pink was 10% or less) (2×) and 2 (an area in which the surface of tomato was completely colored in red was 40 to 70%) (2×)	0 (an area in which the surface of tomato was colored in pink was 10% or less) and 1 (an area in which the surface of tomato was completely colored in red was 10 to 40%) and 3 (an area in which the surface of tomato was completely colored in red was 70% or more and the bottom area remained green) (2×)	1 (an area in which the surface of tomato was completely colored in red was 10 to 40%) and 2 (an area in which the surface of tomato was completely colored in red was 40 to 70%) and 3 (an area in which the surface of tomato was completely colored in red was 70% or more and the bottom area remained green) and 4	0 (an area in which the surface of tomato was colored in pink was 10% or less) (2×) and 1 (an area in which the surface of tomato was completely colored in red was 10 to 40%) and 2 (an area in which the surface of tomato was completely colored in red was 40 to 70%)	0 (an area in which the surface of tomato was colored in pink was 10% or less) (2×) and 1 (an area in which the surface of tomato was completely colored in red was 10 to 40%) and 2 (an area in which the surface of tomato was completely colored in red was 40 to 70%)	0 (an area in which the surface of tomato was colored in pink was 10% or less) (2×) and 1 (an area in which the surface of tomato was completely colored in red was 10 to 40%) and 2 (an area in which the surface of tomato was completely colored in red was 40 to 70%)	0 (an area in which the surface of tomato was colored in pink was 10% or less) and 1 (an area in which the surface of tomato was completely colored in red was 10 to 40%) and 2 (an area in which the surface of tomato was completely colored in red was 40 to 70%) and 3 (an area in which the surface of tomato was completely colored in red was 70% or more and the bottom area remained green)	much more stable	>>10
